Values of other authors, collected in patent US20120128784A1, “COMPOSITION CONTAINING BEE VENOM AS AN ACTIVE INGREDIENT FOR PREVENTING AND TREATING ACNE” (Dong Sung Pharm. Co., Ltd., priority 2009, published 2012).

Test system: edema
Conditions: injected into arthritis patients

CC[C@H](C)[C@H](NC(=O)CN)C(=O)NCC(=O)N[C@@H](C)C(=O)N[C@H](C(=O)N[C@@H](CC(C)C)C(=O)N[C@@H](CCCCN)C(=O)N[C@H](C(=O)N[C@@H](CC(C)C)C(=O)N[C@H](C(=O)N[C@H](C(=O)NCC(=O)N[C@@H](CC(C)C)C(=O)N1CCC[C@H]1C(=O)N[C@@H](C)C(=O)N[C@@H](CC(C)C)C(=O)N[C@H](C(=O)N[C@@H](CO)C(=O)N[C@@H](Cc1c[nH]c2ccccc12)C(=O)N[C@H](C(=O)N[C@@H](CCCCN)C(=O)N[C@@H](CCCNC(=N)N)C(=O)N[C@@H](CCCCN)C(=O)N[C@@H](CCCNC(=N)N)C(=O)N[C@@H](CCC(N)=O)C(=O)N[C@@H](CCC(N)=O)C(N)=O)[C@@H](C)CC)[C@@H](C)CC)[C@@H](C)O)[C@@H](C)O)C(C)C)C(C)C [melittin]
inhibition of edema: edema was significantly inhibited
